Measurements from patent US10858360B2, “Tricyclic gyrase inhibitors” (priority 2011, dated 2020).
In brackets after ≈: the same amount, converted by molar mass.

Key:
Assay type in all cases: cell-based
[1] = system: K. pneumoniae ATCC 700603; assay: MIC, K. pneumoniae ATCC 700603; details: for MIC: Klebsiella pneumoniae, ATCC700603, read-out: MIC Kpn; for MIC Kpn: Kpn = K. pneumoniae
[2] = system: A. baumannii ATCC 19606; assay: MIC, A. baumannii ATCC 19606; details: strain not given; for MIC: Acinetobacter baumannii, ATCC19606, Ab = A. baumannii
[3] = system: E. coli ATCC 25922; assay: MIC, E. coli ATCC 25922; details: for MIC: Escherichia coli
[4] = system: P. aeruginosa ATCC 15692; assay: MIC, P. aeruginosa ATCC 15692; details: for MIC: Pseudomonas aeruginosa, ATCC15692, Pa = P. aeruginosa
[5] = system: S. aureus ATCC 13709; assay: MIC, S. aureus ATCC 13709 (Alamar Blue broth microdilution); details: for MIC: Staphylococcus aureus
[6] = system: S. pneumoniae ATCC 51916; assay: MIC, S. pneumoniae ATCC 51916; details: for MIC: Streptococcus pneumoniae, ATCC51916, Spn = S. pneumoniae
[7] = system: B. thailandensis ATCC E264; assay: microbe, parasite or virus in culture
[8] = system: F. tularensis holarctica LVS; assay: microbe, parasite or virus in culture; details: Ft = F. tularensis; strain not given
[9] = system: Y. pestis CO92 pgm-; assay: microbe, parasite or virus in culture; details: Yp = Y. pestis
[10] = ATCC25922, E. coli, Alamar Blue read after overnight incubation at 35° C.
[11] = ATCC25922, Ec = E. coli, strain not given
[12] = ATCC13709, S. aureus, Alamar Blue read after overnight incubation at 35° C.
[13] = E. coli, Alamar Blue read after overnight incubation at 35° C.
[14] = S. aureus, Alamar Blue read after overnight incubation at 35° C.

CNc1cc(F)cc2c1[nH]c1nc(Oc3cnc(C)nc3)nc(N3CC4NCCC4(C)C3)c12 (stereo not drawn) [4.157]
MIC [1]: 4 µg/mL (≈ 8.92 µM)
MIC [2]: ≤ 0.5 µg/mL
MIC [3, 10]: ≤ 0.5 µg/mL
MIC [3, 11]: ≤ 0.5 µg/mL
MIC [4]: 8 µg/mL (≈ 17.8 µM)
MIC [5, 12]: ≤ 0.5 µg/mL
MIC ([5]; ATCC13709, Sa = S. aureus): ≤ 0.5 µg/mL
MIC [6]: ≤ 0.5 µg/mL

CNc1cc(F)cc2c1[nH]c1nc(Oc3cnc(C(C)O)nc3)nc(N3CC4(CC[C@H]4N)C3)c12 (stereo partly drawn) [4.410]
MIC [1]: 2 µg/mL (≈ 4.31 µM)
MIC [2]: 2 µg/mL (≈ 4.31 µM)
MIC [3, 10]: ≤ 0.5 µg/mL
MIC [3, 11]: ≤ 0.5 µg/mL
MIC [4]: 1 µg/mL (≈ 2.15 µM)
MIC [5, 12]: ≤ 0.5 µg/mL
MIC ([5]; ATCC13709, Sa = S. aureus): ≤ 0.5 µg/mL
MIC [6]: ≤ 0.5 µg/mL

CNc1cc(F)cc2c1[nH]c1nc(Oc3ccc(C#N)nc3)nc(N3C[C@H]4C[C@@H]3C[C@H]4N)c12 [4.434]
MIC [1]: 1 µg/mL (≈ 2.25 µM)
MIC [2]: ≤ 0.5 µg/mL
MIC [3, 10]: ≤ 0.5 µg/mL
MIC [3, 11]: ≤ 0.5 µg/mL
MIC [4]: 1 µg/mL (≈ 2.25 µM)
MIC [5, 12]: ≤ 0.5 µg/mL
MIC ([5]; ATCC13709, Sa = S. aureus): ≤ 0.5 µg/mL
MIC [6]: ≤ 0.5 µg/mL

CNc1cc(F)cc2c1[nH]c1nc(Oc3cnc(C)nc3)nc(N3CC4CCC(N)C4C3)c12 (stereo not drawn) [4.076]
MIC Bt [7]: 1 µg/mL (≈ 2.23 µM)
MIC Ft [8]: 2 µg/mL (≈ 4.46 µM)
MIC Kpn [1]: 4 µg/mL (≈ 8.92 µM)
MIC Ab [2]: ≤0.5 µg/mL
MIC Ec [3, 13]: ≤0.5 µg/mL
MIC Ec ([3]; Ec = E. coli, strain not given): ≤0.5 µg/mL
MIC Pa [4]: 4 µg/mL (≈ 8.92 µM)
MIC Yp [9]: ≤0.5 µg/mL
MIC Sa [5, 14]: ≤0.5 µg/mL
MIC Sa ([5]; Sa = S. aureus): ≤0.5 µg/mL
MIC Spn [6]: ≤0.5 µg/mL

CNc1cc(F)cc2c1[nH]c1nc(Oc3cnc(C)nc3)nc(N3CC4(CCC4N)C3)c12 (stereo not drawn) [4.105]
MIC Bt [7]: ≤0.5 µg/mL
MIC Ft [8]: 1 µg/mL (≈ 2.3 µM)
MIC Kpn [1]: 2 µg/mL (≈ 4.6 µM)
MIC Ab [2]: ≤0.5 µg/mL
MIC Ec ([3]; Ec = E. coli, strain not given): ≤0.5 µg/mL
MIC Pa [4]: 1 µg/mL (≈ 2.3 µM)
MIC Yp [9]: ≤0.5 µg/mL
MIC Sa ([5]; Sa = S. aureus): ≤0.5 µg/mL
MIC Spn [6]: ≤0.5 µg/mL

CNc1cc(F)cc2c1[nH]c1nc(Oc3cnc(C)nc3)nc(N3C[C@@H]4[C@H](C3)[C@@]4(N)C(N)=O)c12 [4.160]
MIC [1]: > 16 µg/mL
MIC [2]: > 16 µg/mL
MIC [3, 10]: 2 µg/mL (≈ 4.32 µM)
MIC [3, 11]: 2 µg/mL (≈ 4.32 µM)
MIC [4]: > 16 µg/mL
MIC [5, 12]: ≤ 0.5 µg/mL
MIC ([5]; ATCC13709, Sa = S. aureus): ≤ 0.5 µg/mL
MIC [6]: ≤ 0.5 µg/mL

CNc1cc(F)c(C)c2c1[nH]c1nc(Oc3cnc(C)nc3)nc(N3C[C@H](N)C4(CC4)C3)c12 [6.29]
MIC [1]: 2 µg/mL (≈ 4.46 µM)
MIC [2]: ≤ 0.5 µg/mL
MIC [3, 10]: ≤ 0.5 µg/mL
MIC [3, 11]: ≤ 0.5 µg/mL
MIC [4]: 2 µg/mL (≈ 4.46 µM)
MIC [5, 12]: ≤ 0.5 µg/mL
MIC ([5]; ATCC13709, Sa = S. aureus): ≤ 0.5 µg/mL
MIC [6]: ≤ 0.5 µg/mL

CNc1cc(F)cc2c1[nH]c1nc(Oc3cnc(C)nc3)nc(N3CCC4(CCC4N)C3)c12 (stereo not drawn) [4.117]
MIC Bt [7]: ≤0.5 µg/mL
MIC Ft [8]: 1 µg/mL (≈ 2.23 µM)
MIC Kpn [1]: 2 µg/mL (≈ 4.46 µM)
MIC Ab [2]: ≤0.5 µg/mL
MIC Ec [3, 13]: ≤0.5 µg/mL
MIC Ec ([3]; Ec = E. coli, strain not given): ≤0.5 µg/mL
MIC Pa [4]: 1 µg/mL (≈ 2.23 µM)
MIC Yp [9]: ≤0.5 µg/mL
MIC Sa [5, 14]: ≤0.5 µg/mL
MIC Sa ([5]; Sa = S. aureus): ≤0.5 µg/mL
MIC Spn [6]: ≤0.5 µg/mL

CNc1cc(F)cc2c1[nH]c1nc(Oc3ccc4cncnc4c3)nc(N3CC4CC(N)C4C3)c12 (stereo not drawn) [4.365]
MIC Bt [7]: ≤0.5 µg/mL
MIC Ft [8]: 1 µg/mL (≈ 2.13 µM)
MIC Kpn [1]: 4 µg/mL (≈ 8.5 µM)
MIC Ab [2]: ≤0.5 µg/mL
MIC Ec [3, 13]: ≤0.5 µg/mL
MIC Ec ([3]; Ec = E. coli, strain not given): ≤0.5 µg/mL
MIC Pa [4]: 1 µg/mL (≈ 2.13 µM)
MIC Yp [9]: ≤0.5 µg/mL
MIC Sa [5, 14]: ≤0.5 µg/mL
MIC Sa ([5]; Sa = S. aureus): ≤0.5 µg/mL
MIC Spn [6]: ≤0.5 µg/mL

CNc1cc(F)c(F)c2c1[nH]c1nc(Oc3cnc(N)nc3)nc(N3CC(N)C4(CC4)C3)c12 (stereo not drawn) [5.11]
MIC Kpn [1]: 4 µg/mL (≈ 8.82 µM)
MIC Ab [2]: 2 µg/mL (≈ 4.41 µM)
MIC Ec [3, 13]: ≤0.5 µg/mL
MIC Ec ([3]; Ec = E. coli, strain not given): ≤0.5 µg/mL
MIC Pa [4]: 4 µg/mL (≈ 8.82 µM)
MIC Sa [5, 14]: ≤0.5 µg/mL
MIC Sa ([5]; Sa = S. aureus): ≤0.5 µg/mL
MIC Spn [6]: ≤0.5 µg/mL
